ChEMBL document CHEMBL1201862, “PubChem BioAssay data set” (2004)
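Results reflect a 48-hour exposure of cells in 96-well plates to compound at five concentrations. GI50 marks 50% less growth.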 Calls of active or inactive are those of the source. Rule as the data show it: active = GI50 up to about 1.1 µM and inactive = higher.

Tests used:
Test in all cases: NCI tumour cell line growth inhibition, 48 h
HOP-92 = test system: HOP-92
RXF 393 = test system: RXF 393
NCI/ADR-RES = test system: NCI/ADR-RES
T47D = test system: T47D
HOP-62 = test system: HOP-62
KM12 = test system: KM12
SNB-19 = test system: SNB-19
DU-145 = test system: DU-145
COLO 205 = test system: COLO 205
NCI-H522 = test system: NCI-H522
SF-295 = test system: SF-295
MOLT-4 = test system: MOLT-4
MCF7 = test system: MCF7
OVCAR-4 = test system: OVCAR-4
SN12C = test system: SN12C
SK-MEL-28 = test system: SK-MEL-28
M14 = test system: M14
U-251 = test system: U-251

Measured: GI50

O=C1NC(N2CCCCC2)=N/C1=C\c1ccco1
inactive: HOP-92 > 100 µM | RXF 393 > 100 µM | NCI/ADR-RES > 100 µM | T47D > 100 µM | HOP-62 > 100 µM | KM12 > 100 µM | SNB-19 > 100 µM | DU-145 > 100 µM | COLO 205 > 100 µM | NCI-H522 > 100 µM | SF-295 > 100 µM | MOLT-4 > 100 µM | MCF7 > 100 µM | OVCAR-4 > 100 µM | SN12C > 100 µM | SK-MEL-28 > 100 µM | M14 > 100 µM | U-251 > 100 µM

c1ccc(/N=C2\c3ccsc3/C(=N/c3ccccc3)c3ccsc32)cc1
inactive: HOP-92 2.61 µM | RXF 393 1.77 µM | NCI/ADR-RES 1.98 µM | T47D 1.52 µM | HOP-62 1.63 µM | KM12 2.36 µM | SNB-19 1.98 µM | DU-145 1.73 µM | COLO 205 2.63 µM | NCI-H522 1.98 µM | SF-295 1.7 µM | MOLT-4 1.9 µM | MCF7 2.62 µM | OVCAR-4 1.77 µM | SN12C 1.58 µM | SK-MEL-28 2.01 µM | M14 1.34 µM | U-251 1.91 µM

CC1=NN(c2ccccc2)C(=O)C1/N=N/c1ccc(S(N)(=O)=O)cc1 (configuration not stated)
inactive: HOP-92 > 100 µM | RXF 393 > 100 µM | NCI/ADR-RES > 100 µM | T47D > 100 µM | HOP-62 > 100 µM | KM12 > 100 µM | SNB-19 > 100 µM | DU-145 > 100 µM | COLO 205 > 100 µM | NCI-H522 > 100 µM | SF-295 > 100 µM | MOLT-4 > 100 µM | MCF7 > 100 µM | OVCAR-4 > 100 µM | SN12C > 100 µM | SK-MEL-28 > 100 µM | M14 > 100 µM | U-251 > 100 µM

Cc1ccc(S(=O)(=O)OC2CC(C(C)(C)C)CCC2c2ccccc2)cc1 (configuration not stated)
inactive: HOP-92 23.3 µM | RXF 393 89.7 µM | NCI/ADR-RES > 100 µM | T47D 53.7 µM | HOP-62 53 µM | KM12 99.8 µM | SNB-19 86.7 µM | DU-145 > 100 µM | COLO 205 > 100 µM | SF-295 42.1 µM | MOLT-4 44.6 µM | MCF7 35.1 µM | OVCAR-4 34.9 µM | SN12C > 100 µM | SK-MEL-28 > 100 µM | M14 88.7 µM | U-251 50.1 µM

CCOC(=O)[C@@]1(C(C)=O)CC(C)=C(C)C[S@@+]1[O-]
inactive: HOP-92 50.2 µM | RXF 393 > 100 µM | NCI/ADR-RES > 100 µM | T47D > 100 µM | HOP-62 > 100 µM | KM12 > 100 µM | SNB-19 > 100 µM | DU-145 > 100 µM | COLO 205 > 100 µM | NCI-H522 > 100 µM | SF-295 > 100 µM | MOLT-4 > 100 µM | MCF7 > 100 µM | OVCAR-4 > 100 µM | SN12C > 100 µM | SK-MEL-28 > 100 µM | M14 > 100 µM | U-251 > 100 µM

COc1ccc(-c2cc3ccccc3oc2=O)cc1OC
inactive: HOP-92 > 100 µM | RXF 393 > 100 µM | NCI/ADR-RES > 100 µM | T47D > 100 µM | HOP-62 > 100 µM | KM12 > 100 µM | SNB-19 90.6 µM | DU-145 > 100 µM | COLO 205 > 100 µM | NCI-H522 > 100 µM | SF-295 > 100 µM | MOLT-4 > 100 µM | MCF7 > 100 µM | OVCAR-4 > 100 µM | SN12C > 100 µM | M14 > 100 µM | U-251 > 100 µM

COc1cc(O)c2c(=O)c3cccc(C)c3[nH]c2c1
inactive: RXF 393 > 10 µM | NCI/ADR-RES > 10 µM | T47D > 10 µM | HOP-62 > 10 µM | KM12 5.93 µM | SNB-19 > 10 µM | DU-145 > 10 µM | COLO 205 > 10 µM | NCI-H522 > 10 µM | SF-295 > 10 µM | MOLT-4 3.99 µM | MCF7 > 10 µM | OVCAR-4 6.4 µM | SN12C > 10 µM | SK-MEL-28 > 10 µM | M14 > 10 µM | U-251 > 10 µM

COc1ccc(Cn2nc(OCc3ccccn3)c3cc([N+](=O)[O-])ccc32)cc1
inactive: RXF 393 > 100 µM | NCI/ADR-RES > 100 µM | T47D > 100 µM | HOP-62 28.1 µM | KM12 > 100 µM | SNB-19 85.9 µM | DU-145 > 100 µM | NCI-H522 > 100 µM | SF-295 50.9 µM | MOLT-4 > 100 µM | MCF7 > 100 µM | SN12C > 100 µM | SK-MEL-28 > 100 µM | M14 > 100 µM
